From patent US8853424B2 (Japan Science and Technology Agency, priority 2008, dated 2014)

Experiments:
[1] = tested on: transglutaminase (TGase); assay: Measurement of TG (TGase inhibitory activity, monodansyl cadaverine / N,N-dimethylcasein fluorescence, FDSS 3000); assay type: biochemical
Summary of the method: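 Compound (1 μL of 10 mM stock) added to 0.1 mL reaction: 100 mM HEPES-NaOH pH 7.5, 1 mM CaCl2, 20 μM monodansyl cadaverine, 0.05 mg/mL N,N-dimethylcasein, 5 μg/mL TGase. Rate of fluorescence change at 340 nm measured; DMSO control set to 100; TG50 is the concentration halving activity.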

[2] = tested on: Truncated N-terminal huntington 150 Q-EGFP-Neuron 2a cells; assay: Measurement of x-Fold (polyglutamine aggregation inhibitory activity); assay type: cell-based
Procedure: In the present invention, the polyglutamine aggregation inhibitory activity (x-Fold) can be measured, for example, by the method described in the Example.
The number of the aggregated cells, and the total number of cells were counted by Array Scan V T1 (manufactured by Cellomics, Pittuburg, USA), and the ratio of the aggregated cells to the total number of cells was determined (x-Fold). […]

[3] = TGase activity with compound (10 mM, 1 μL in 0.1 ml enzyme reaction solution), DMSO control taken as 100
[4] = ratio of aggregated cells to total number of cells, compound 20 μM, 20 hr, almost 1 without compound, smaller = stronger inhibition
[5] = TGase inhibitory activity value, Table 1
[6] = polyglutamine aggregation inhibitory activity, Table 1

SMILES	TGase activity remaining (% of DMSO control = 100) [1, 3]	TGase activity remaining (% of DMSO control = 100) [1, 5]	TGase activity remaining (% of DMSO control = 100) ([1]; TGase inhibitory activity value, Table 1, listed as 4142)	TGase activity remaining (% of DMSO control = 100) ([1]; TGase inhibitory activity value, Table 1, listed as 655)	TGase activity remaining (% of DMSO control = 100) ([1]; TGase inhibitory activity value, Table 1, listed as 3003)	x-Fold [2, 4]	x-Fold [2, 6]	x-Fold ([2]; polyglutamine aggregation inhibitory activity, Table 1, listed as 4142)	x-Fold ([2]; polyglutamine aggregation inhibitory activity, Table 1, listed as 655)	x-Fold ([2]; polyglutamine aggregation inhibitory activity, Table 1, listed as 3003)
CCCCB(CCCC)OC(=O)C(N)CC(N)=O (stereo not drawn) [Example 183, dibutyl(asparagine-O,N)borane]	91	91	–	–	–	1.02	1.02	–	–	–
OB(c1ccccc1)c1cc(B(O)c2ccccc2)cc(B(O)c2ccccc2)c1 [Example 130, 1,3,5-tri(phenylhydroxyboryl)benzene]	116	116	–	–	–	0.85	0.85	–	–	–
NC(=O)C1NCCNC1C(=O)OB(c1ccccc1)c1ccccc1 (stereo not drawn) [Example 193, diphenyl(2-piperazine-3-carboxyamide-carboxy)borane]	92	92	–	–	–	1.03	1.03	–	–	–
OB(c1ccccc1)c1cccc(COCc2ccccc2B(O)c2ccccc2)c1 [Example 330, (2-(phenylhydroxyboryl)benzyl)(3-(phenylhydroxyboryl)benzyl)ether]	89	–	–	89	–	0.90	–	–	0.90	–
c1ccc(B(ON2CCCCC2)c2cccc(Oc3cccc(B(ON4CCCCC4)c4ccccc4)c3)c2)cc1 [Example 195, di(phenyl 3-piperidinooxyborylphenyl)ether]	115	115	–	–	–	0.77	0.77	–	–	–
CN(C)CCOB(c1ccccc1)c1ccc(COCc2ccc(B(OCCN(C)C)c3ccccc3)cc2)cc1 [Example 198, bis(4,4′-(phenyldimethylaminoethoxyboryl)benzyl)ether]	28	–	–	–	28	0.8	–	–	–	0.8
c1ccc(CNCCOB(c2ccccc2)c2cccc3ccccc23)cc1 [Example 204, phenyl naphthyl benzylaminoethylborinate]	61	61	–	–	–	0.79	0.79	–	–	–
OB(c1ccc(C(F)(F)F)cc1)c1c2ccccc2c(B(O)c2ccc(C(F)(F)F)cc2)c2ccccc12 [Example 374]	17	17	–	–	–	1.14	1.14	–	–	–

Further lines, with some results ahead:

TGase activity remaining (% of DMSO control = 100) [1, 3]	TGase activity remaining (% of DMSO control = 100) [1, 5]	TGase activity remaining (% of DMSO control = 100) ([1]; TGase inhibitory activity value, Table 1, listed as 4142)	TGase activity remaining (% of DMSO control = 100) ([1]; TGase inhibitory activity value, Table 1, listed as 655)	TGase activity remaining (% of DMSO control = 100) ([1]; TGase inhibitory activity value, Table 1, listed as 3003)	SMILES	x-Fold [2, 4]	x-Fold [2, 6]	x-Fold ([2]; polyglutamine aggregation inhibitory activity, Table 1, listed as 4142)	x-Fold ([2]; polyglutamine aggregation inhibitory activity, Table 1, listed as 655)	x-Fold ([2]; polyglutamine aggregation inhibitory activity, Table 1, listed as 3003)
101	–	–	–	–	OB(c1ccc(Cl)cc1)c1ccc(Cl)cc1 [Example 115, bis(4-chlorophenyl)borinic acid]	1.07	–	–	–	–
44	44	–	–	–	NCCOB(c1ccc(C(F)(F)F)cc1)c1c2ccccc2c(B(OCCN)c2ccc(C(F)(F)F)cc2)c2ccccc12 [Example 375]	1.05	1.05	–	–	–
112	–	112	–	–	CN(C)CCOB(c1ccc(C(F)(F)F)cc1)c1ccc(C(F)(F)F)cc1 [Example 233]	1.12	–	1.12	–	–
114	114	–	–	–	N#Cc1ccc(B(OCCN)c2ccc(C#N)cc2)cc1 [Example 103, aminoethyl bis(4-cyanophenyl)borinate]	0.89	0.89	–	–	–
87	87	–	–	–	CC(O)C(N)COB(c1ccc(Cl)c(F)c1)c1ccc(Cl)c(F)c1 (stereo not drawn) [Example 238, di(4-chloro-3-fluorophenyl) 2-amino-3-hydroxybutyl borinate]	1.07	1.07	–	–	–
92	92	–	–	–	N#Cc1ccc(B(OCCNCc2ccccc2)c2ccc(C#N)cc2)cc1 [Example 105, benzylaminoethyl bis(4-cyanophenyl)borinate]	1.05	1.05	–	–	–
